Test results published in US9029325B2, “Amylin analogues and pharmaceutical compositions thereof” (Novo Nordisk A/S, priority 2011, dated 2015).
Starred links: 1 amine or outer side, 2 acyl side, 3 side chain; linkers in the order of their positions; H or OH if unused. Positions of bridges follow the written chain, without caps; N, C: chain ends. Residues, ends and D or L forms follow the SMILES beside them. *: point of attachment. C20 diacid = O=C(O)CCCCCCCCCCCCCCCCCCC(=O)*; γGlu = O=C(O)[C@H](CCC(=O)[*:2])N[*:1]

Experiment: Assay (III) ThT fibrillation assay for physical stability
Assay type: physicochemical
Conditions: for Th T pH 4.0 lag time (h): 37° C., orbital shaking 960 rpm; for ThT pH 4.0 lag time: Table 9
Description: Low physical stability of a polypeptide may lead to amyloid fibril formation, which is observed as well-ordered, thread-like macromolecular structures in the sample eventually resulting in gel formation. This has traditionally been measured by visual inspection of the sample. However, that kind of measurement is very subjective and depending on the observer. Therefore, the application of a small molecule indicator probe is much more advantageous. Thioflavin T (ThT) is such a probe and has a distinct fluorescence signature when binding to fibrils [Naiki et al. (1989) Anal. Biochem. 177, 244-249; LeVine (1999) Methods. Enzymol. […], 274-284].
The time course for fibril formation can be described by a sigmoidal curve with the following expression [Nielsen et al. (2001) Biochemistry 40, 6036-6046]:
[formula] Here, F is the ThT fluorescence at the time t. The constant t0 is the time needed to reach 50% of maximum fluorescence. The two important parameters describing fibril formation are the lag-time calculated by t0−2T and the apparent rate constant kapp=1/τ.
Few of those intermediates nucleate to form a template onto which further intermediates may assembly and the fibrillation proceeds. The lag-time corresponds to the interval in which the critical mass of nucleus is built up and the apparent rate constant is the rate with which the fibril itself is formed.
Samples were prepared freshly before each assay. Each sample composition is described in each example. The pH of the sample was adjusted to the desired value using appropriate amounts of concentrated NaOH and HClO4 or HCl. Thioflavin T was added to the samples from a stock solution in H2O to a final concentration of 1 μM.
Sample aliquots of 200 μl were placed in a 96 well microtiter plate (Packard OptiPlate™-96, white polystyrene). Usually, four or eight replica of each sample (corresponding to one test condition) were placed in one column of wells. The plate was sealed with Scotch Pad (Qiagen).
Incubation at given temperature, shaking and measurement of the ThT fluorescence emission were done in a Fluoroskan Ascent FL fluorescence platereader or Varioskan platereader (Thermo Labsystems). The temperature was adjusted to 37° C. The orbital shaking was adjusted to 960 rpm with an amplitude of 1 mm in all the presented data. Fluorescence measurement was done using excitation through a 444 nm filter and measurement of emission through a 485 nm filter.
Each run was initiated by incubating the plate at the assay temperature for 10 min. The plate was measured every 20 minutes for a desired period of time. Between each measurement, the plate was shaken and heated as described.
The measurement points were saved in Microsoft Excel format for further processing and curve drawing and fitting was performed using GraphPad Prism. The background emission from ThT in the absence of fibrils was negligible. The data points are typically a mean of four or eight samples and shown with standard deviation error bars. Only data obtained in the same experiment (i.e. samples on the same plate) are presented in the same graph ensuring a relative measure of fibrillation […].
The data set may be fitted to Eq. (1). However, since full sigmodial curves in this case are not always achieved during the measurement time, the degree of fibrillation is expressed as ThT fluorescence tabulated as the mean of the samples and shown with the standard deviation at various time points.
The polypeptide concentration in each of the tested formulations were measured both before application in the ThT fibrillation assay (“Initial”) and after completion of the ThT fibrillation (“After ThT assay”). Concentrations were determined by reverse HPLC methods using a pramlintide standard as a reference. Before measurement after completion 150 μl was collected from each of the replica and transferred to an Eppendorf tube. These were centrifuged at 30000 G for 40 mins. […]

| Th T pH 4.0 lag time (h) | ThT pH 4.0 lag time [hr] | Compound |
| --- | --- | --- |
| >45 | >45 | CC[C@H](C)[C@H](NC(=O)[C@@H]1CCCN1C(=O)CNC(=O)[C@H](Cc1ccccc1)NC(=O)[C@H](CC(N)=O)NC(=O)[C@H](CC(N)=O)NC(=O)[C@H](CO)NC(=O)[C@H](CO)NC(=O)[C@H](Cc1c[nH]cn1)NC(=O)[C@H](Cc1c[nH]cn1)NC(=O)[C@H](CC(C)C)NC(=O)[C@H](Cc1ccccc1)NC(=O)[C@H](CCC(=O)O)NC(=O)[C@H](C)NC(=O)[C@H](CC(C)C)NC(=O)[C@H](CCCNC(=N)N)NC(=O)[C@H](CCC(N)=O)NC(=O)[C@@H](NC(=O)[C@H](C)NC(=O)[C@@H]1CSSC[C@H](NC(=O)[C@H](CCCCN)NC(=O)CC[C@H](NC(=O)CCCCCCCCCCCCCCCCCCC(=O)O)C(=O)O)C(=O)N[C@@H](CC(N)=O)C(=O)N[C@@H]([C@@H](C)O)C(=O)N[C@@H](C)C(=O)N[C@@H]([C@@H](C)O)C(=O)N1)[C@@H](C)O)C(=O)N[C@@H](CC(C)C)C(=O)N1CCC[C@H]1C(=O)N1CCC[C@H]1C(=O)N[C@H](C(=O)N[C@@H](CC(N)=O)C(=O)N[C@H](C(=O)NCC(=O)N[C@@H](CO)C(=O)N[C@@H](CCC(N)=O)C(=O)N[C@H](C(=O)N1CCC[C@H]1C(N)=O)[C@@H](C)O)C(C)C)[C@@H](C)O [Example 135, N-alpha-[(S)-4-Carboxy-4-(19-carboxynonadecanoylamino)butyryl]-[Glu14, His17, Gln35, Pro37]-pramlintide] ({C20 diacid-γGlu}-KCNTATCATQRLAEFLHHSSNNFGPILPPTNVGSQTP-NH2; disulfide 2-7) |
| >45 | >45 | CC[C@H](C)[C@H](NC(=O)[C@@H]1CCCN1C(=O)CNC(=O)[C@H](Cc1ccccc1)NC(=O)[C@H](CC(N)=O)NC(=O)[C@H](CCC(N)=O)NC(=O)[C@H](CO)NC(=O)[C@H](CO)NC(=O)[C@H](Cc1c[nH]cn1)NC(=O)[C@H](Cc1c[nH]cn1)NC(=O)[C@H](CC(C)C)NC(=O)[C@H](Cc1ccccc1)NC(=O)[C@H](CCC(=O)O)NC(=O)[C@H](C)NC(=O)[C@H](CC(C)C)NC(=O)[C@H](CCCNC(=N)N)NC(=O)[C@H](CCC(N)=O)NC(=O)[C@@H](NC(=O)[C@H](C)NC(=O)[C@@H]1CSSC[C@H](NC(=O)[C@H](CCCCN)NC(=O)CC[C@H](NC(=O)CCCCCCCCCCCCCCCCCCC(=O)O)C(=O)O)C(=O)N[C@@H](CC(N)=O)C(=O)N[C@@H]([C@@H](C)O)C(=O)N[C@@H](C)C(=O)N[C@@H]([C@@H](C)O)C(=O)N1)[C@@H](C)O)C(=O)N[C@@H](CC(C)C)C(=O)N1CCC[C@H]1C(=O)N1CCC[C@H]1C(=O)N[C@H](C(=O)N[C@@H](CC(N)=O)C(=O)N[C@H](C(=O)NCC(=O)N[C@@H](CO)C(=O)N[C@@H](CCC(N)=O)C(=O)N[C@H](C(=O)N1CCC[C@H]1C(N)=O)[C@@H](C)O)C(C)C)[C@@H](C)O [Example 136, N-alpha-[(S)-4-Carboxy-4-(19-carboxynonadecanoylamino)butyryl]-[Glu14, His17, Gln21, Gln35, Pro37]-pramlintide] ({C20 diacid-γGlu}-KCNTATCATQRLAEFLHHSSQNFGPILPPTNVGSQTP-NH2; disulfide 2-7) |

Continued, molecule first:

| Compound | Th T pH 4.0 lag time (h) | ThT pH 4.0 lag time [hr] |
| --- | --- | --- |
| CC[C@H](C)[C@H](NC(=O)[C@@H]1CCCN1C(=O)CNC(=O)[C@H](Cc1ccccc1)NC(=O)[C@H](CC(N)=O)NC(=O)[C@H](CC(N)=O)NC(=O)[C@H](CO)NC(=O)[C@H](CO)NC(=O)[C@H](Cc1c[nH]cn1)NC(=O)[C@H](Cc1c[nH]cn1)NC(=O)[C@H](CC(C)C)NC(=O)[C@H](Cc1ccccc1)NC(=O)[C@H](CCC(=O)O)NC(=O)[C@H](C)NC(=O)[C@H](CC(C)C)NC(=O)[C@H](CCCNC(=N)N)NC(=O)[C@H](CCC(N)=O)NC(=O)[C@@H](NC(=O)[C@H](C)NC(=O)[C@@H]1CSSC[C@H](NC(=O)CNC(=O)CC[C@H](NC(=O)CCCCCCCCCCCCCCCCCCC(=O)O)C(=O)O)C(=O)N[C@@H](CC(N)=O)C(=O)N[C@@H]([C@@H](C)O)C(=O)N[C@@H](C)C(=O)N[C@@H]([C@@H](C)O)C(=O)N1)[C@@H](C)O)C(=O)N[C@@H](CC(C)C)C(=O)N1CCC[C@H]1C(=O)N1CCC[C@H]1C(=O)N[C@H](C(=O)N[C@@H](CC(N)=O)C(=O)N[C@H](C(=O)NCC(=O)N[C@@H](CO)C(=O)N[C@@H](CC(N)=O)C(=O)N[C@H](C(=O)N1CCC[C@H]1C(N)=O)[C@@H](C)O)C(C)C)[C@@H](C)O [Example 91, N-alpha-[(S)-4-Carboxy-4-(19-carboxynonadecanoylamino)butyryl]-[Gly1, Glu14, His17, Pro37]-pramlintide] ({C20 diacid-γGlu}-GCNTATCATQRLAEFLHHSSNNFGPILPPTNVGSNTP-NH2; disulfide 2-7) | 29 | – |
| CC[C@H](C)[C@H](NC(=O)[C@@H]1CCCN1C(=O)CNC(=O)[C@H](Cc1ccccc1)NC(=O)[C@H](CC(N)=O)NC(=O)[C@H](CC(N)=O)NC(=O)[C@H](CO)NC(=O)[C@H](CO)NC(=O)[C@H](Cc1c[nH]cn1)NC(=O)[C@H](CCCNC(=N)N)NC(=O)[C@H](CC(C)C)NC(=O)[C@H](Cc1ccccc1)NC(=O)[C@H](CCC(=O)O)NC(=O)[C@H](C)NC(=O)[C@H](CC(C)C)NC(=O)[C@H](CCCNC(=N)N)NC(=O)[C@H](CCC(N)=O)NC(=O)[C@@H](NC(=O)[C@H](C)NC(=O)[C@@H]1CSSC[C@H](NC(=O)[C@H](CCC(=O)O)NC(=O)[C@H](CCCNC(=N)N)NC(=O)[C@H](CCC(=O)O)NC(=O)CC[C@H](NC(=O)CCCCCCCCCCCCCCCCCCC(=O)O)C(=O)O)C(=O)N[C@@H](CC(N)=O)C(=O)N[C@@H]([C@@H](C)O)C(=O)N[C@@H](C)C(=O)N[C@@H]([C@@H](C)O)C(=O)N1)[C@@H](C)O)C(=O)N[C@@H](CC(C)C)C(=O)N1CCC[C@H]1C(=O)N1CCC[C@H]1C(=O)N[C@H](C(=O)N[C@@H](CC(N)=O)C(=O)N[C@H](C(=O)NCC(=O)N[C@@H](CO)C(=O)N[C@@H](CC(N)=O)C(=O)N[C@H](C(=O)N1CCC[C@H]1C(N)=O)[C@@H](C)O)C(C)C)[C@@H](C)O [Example 124, N-alpha-[(S)-4-Carboxy-4-(19-carboxynonadecanoylamino)butyryl]-Glu-Arg-[Glu1, Glu14, Arg17, Pro37]-pramlintide] ({C20 diacid-γGlu}-ERECNTATCATQRLAEFLRHSSNNFGPILPPTNVGSNTP-NH2; disulfide 4-9) | >45 | >45 |
| CC[C@H](C)[C@H](NC(=O)[C@@H]1CCCN1C(=O)CNC(=O)[C@H](Cc1ccccc1)NC(=O)[C@H](CC(N)=O)NC(=O)[C@H](CCC(N)=O)NC(=O)[C@H](CO)NC(=O)[C@H](CO)NC(=O)[C@H](Cc1c[nH]cn1)NC(=O)[C@H](Cc1c[nH]cn1)NC(=O)[C@H](CC(C)C)NC(=O)[C@H](Cc1ccccc1)NC(=O)[C@H](CCC(=O)O)NC(=O)[C@H](C)NC(=O)[C@H](CC(C)C)NC(=O)[C@H](CCCNC(=N)N)NC(=O)[C@H](CCC(N)=O)NC(=O)[C@@H](NC(=O)[C@H](C)NC(=O)[C@@H]1CSSC[C@H](NC(=O)[C@H](CCCCN)NC(=O)CC[C@H](NC(=O)CCCCCCCCCCCCCCCCCCC(=O)O)C(=O)O)C(=O)N[C@@H](CC(N)=O)C(=O)N[C@@H]([C@@H](C)O)C(=O)N[C@@H](C)C(=O)N[C@@H]([C@@H](C)O)C(=O)N1)[C@@H](C)O)C(=O)N[C@@H](CC(C)C)C(=O)N1CCC[C@H]1C(=O)N1CCC[C@H]1C(=O)N[C@H](C(=O)N[C@@H](CC(N)=O)C(=O)N[C@H](C(=O)NCC(=O)N[C@@H](CO)C(=O)N[C@@H](CC(N)=O)C(=O)N[C@H](C(=O)N1CCC[C@H]1C(N)=O)[C@@H](C)O)C(C)C)[C@@H](C)O [Example 130, N-alpha-[(S)-4-Carboxy-4-(19-carboxynonadecanoylamino)butyryl]-[Glu14, His17, Gln21, Pro37]-pramlintide] ({C20 diacid-γGlu}-KCNTATCATQRLAEFLHHSSQNFGPILPPTNVGSNTP-NH2; disulfide 2-7 (inferred); C-terminus assumed) | >45 | >45 |
